Active and inactive are the calls of the source. No cut-off for these calls is given here.
Tests used:
HCT-116 [1] = test: Induction of apoptosis in human HCT-116 cells assessed as downregulation of ADK gene expression at 10 to 500 nM incubated for 6 to 48 hrs by RNA analysis; type: functional, cell-based; details: dose 10-500 nM, time 6-48 hrs
HCT-116 [2] = test: Induction of apoptosis in human HCT-116 cells assessed as downregulation of GNPDA2 gene expression at 10 to 500 nM incubated for 6 to 48 hrs by RNA analysis; type: functional, cell-based; details: dose 10-500 nM, time 6-48 hrs
[3] = Toxicity in SCID mouse assessed as maximum tolerated dose at po administration; type: organism-based; details: in vivo
HCT-116 [4] = test: Induction of apoptosis in human HCT-116 cells assessed as downregulation of DHODH gene expression at 10 to 500 nM incubated for 6 to 48 hrs by RNA analysis; type: functional, cell-based; details: dose 10-500 nM, time 6-48 hrs
PDX27454 [5] = test: Antitumor activity against human PDX27454 cells xenografted in SCID mouse model assessed as reduction in tumor growth at 5 to 15 mg/kg,ip administrated once per week for 4 weeks; type: functional, organism-based; details: dose 5-15 mg/kg
HCT-116 [6] = test: Induction of apoptosis in human HCT-116 cells assessed as upregulation of p21 protein expression incubated for 48 hrs by Western blotting analysis; type: functional, cell-based
HCT-116 [7] = test: Induction of apoptosis in human HCT-116 cells assessed as upregulation of Bax protein expression incubated for 48 hrs by Western blotting analysis; type: functional, cell-based
HCT-116 [8] = test: Induction of cell cycle arrest in human HCT-116 cells assessed as accumulation of cells at S phase at 2.5 to 10 nM incubated for 48 hrs by Annexin V-FITC/PI staining based flow cytometry assay; type: functional; details: dose 2.5-10 nM
HCT-116 [9] = test: Induction of apoptosis in human HCT-116 cells assessed as late apoptotic cells at 10 nM incubated for 48 hrs by Annexin V-FITC/PI staining based flow cytometry assay; type: functional
HCT-116 [10] = test: Induction of apoptosis in human HCT-116 cells assessed as increase in caspase-3 activity incubated for 48 hrs by BCA protein assay; type: functional, cell-based
HCT-116 [11] = test: Induction of apoptosis in human HCT-116 cells assessed as early apoptotic cells at 5 nM incubated for 48 hrs by Annexin V-FITC/PI staining based flow cytometry assay; type: functional
HCT-116 [12] = test: Induction of apoptosis in human HCT-116 cells assessed as upregulation of cytochrome-C protein expression incubated for 48 hrs by Western blotting analysis; type: functional, cell-based
PDX27454 [13] = test: Antitumor activity against human PDX27454 cells xenografted in SCID mouse model assessed as reduction in tumor growth at 10 mg/kg,po administrated once per week for 4 weeks; type: functional, organism-based
[14] = Toxicity in SCID mouse xenografted with human PDX27454 cells assessed as body weight loss at 15 mg/kg,ip administrated once per week for 4 weeks; type: organism-based; details: in vivo, 672 h
PDX27454 [15] = test: Antitumor activity against human PDX27454 cells xenografted in SCID mouse model assessed as reduction in tumor growth at 10 mg/kg,ip administrated once per week for 4 weeks; type: functional, organism-based
[16] = Toxicity in SCID mouse xenografted with human PDX27454 cells assessed as body weight loss at 10 mg/kg,ip administrated once per week for 4 weeks; type: organism-based; details: in vivo, 672 h
PDX27454 [17] = test: Antitumor activity against human PDX27454 cells xenografted in SCID mouse model assessed as reduction in tumor growth at 2.5 to 10 mg/kg,ip administrated once per week for 4 weeks; type: functional, organism-based; details: dose 2.5-10 mg/kg
PDX27454 [18] = test: Antitumor activity against human PDX27454 cells xenografted in SCID mouse model assessed as reduction in tumor growth at 3 to 7 mg/kg,po administrated once per week for 4 weeks; type: functional, organism-based; details: dose 3-7 mg/kg
[19] = Toxicity in SCID mouse xenografted with human PDX27454 cells assessed as body weight loss at 7 mg/kg,po administrated once per week for 4 weeks; type: organism-based; details: in vivo, 672 h

CC[C@@]1(O)C(=O)OCc2c1cc1n(c2=O)Cc2cc3cc4c(cc3nc2-1)OCO4
Activity (HCT-116 [1]): Active
Activity (HCT-116 [2]): Active
MTD [3]: 10 mg/kg
Activity (HCT-116 [4]): Active

CC[C@@]1(O)C(=O)OCc2c1cc1n(c2=O)Cc2c-1nc1cc3c(cc1c2-c1cc(OC)cc(OC)c1)OCO3
Activity (PDX27454 [5]): Active
Activity (HCT-116 [6]): Dose-Dependent Effect
Activity (HCT-116 [7]): Dose-Dependent Effect
Activity (HCT-116 [8]): Active
Activity (HCT-116 [9]): 10.87%
Activity (HCT-116 [10]): Dose-Dependent Effect
Activity (HCT-116 [11]): 26.86%
Activity (HCT-116 [12]): Dose-Dependent Effect

CCc1ccc(-c2c3c(nc4cc5c(cc24)OCO5)-c2cc4c(c(=O)n2C3)COC(=O)[C@]4(O)CC)cc1
Activity (PDX27454 [13]): Active
Activity [14]: Non-Toxic
Activity (PDX27454 [15]): inactive
Activity [16]: Non-Toxic

CC[C@@]1(O)C(=O)OCc2c1cc1n(c2=O)Cc2c-1nc1cc3c(cc1c2-c1ccc(OC)cc1)OCO3
Activity (PDX27454 [17]): Active
Activity (PDX27454 [18]): Active
Activity [19]: > 20%

Reference: ChEMBL document CHEMBL5376003, “Structure-Activity Relationship of FL118 Platform Position 7 Versus Position 9-Derived Compounds and Their Mechanism of Action and Antitumor Activity” (J Med Chem, 2023)
